Data taken from patent US20250195524A1, “PYRIMIDO-PYRIDAZINONE COMPOUND AS TOLL-LIKE RECEPTOR AGONIST” (SHANGHAI VISONPHARMA CO., LTD., priority 2022, published 2025).

Each molecule was assayed against T1, human TLR8 (Homo sapiens, UniProt Q9NR97) (assay: HEK-Blue hTLR8 SEAP reporter gene agonism assay). Details: HEK-Blue hTLR8 cells, SEAP (Quanti-blue, 650 nm), 16-22 hours incubation.
T1 construct: host or cells: HEK-Blue hTLR8 (HEK293-derived reporter cells)
T1 sequence (Q9NR97 27-1041): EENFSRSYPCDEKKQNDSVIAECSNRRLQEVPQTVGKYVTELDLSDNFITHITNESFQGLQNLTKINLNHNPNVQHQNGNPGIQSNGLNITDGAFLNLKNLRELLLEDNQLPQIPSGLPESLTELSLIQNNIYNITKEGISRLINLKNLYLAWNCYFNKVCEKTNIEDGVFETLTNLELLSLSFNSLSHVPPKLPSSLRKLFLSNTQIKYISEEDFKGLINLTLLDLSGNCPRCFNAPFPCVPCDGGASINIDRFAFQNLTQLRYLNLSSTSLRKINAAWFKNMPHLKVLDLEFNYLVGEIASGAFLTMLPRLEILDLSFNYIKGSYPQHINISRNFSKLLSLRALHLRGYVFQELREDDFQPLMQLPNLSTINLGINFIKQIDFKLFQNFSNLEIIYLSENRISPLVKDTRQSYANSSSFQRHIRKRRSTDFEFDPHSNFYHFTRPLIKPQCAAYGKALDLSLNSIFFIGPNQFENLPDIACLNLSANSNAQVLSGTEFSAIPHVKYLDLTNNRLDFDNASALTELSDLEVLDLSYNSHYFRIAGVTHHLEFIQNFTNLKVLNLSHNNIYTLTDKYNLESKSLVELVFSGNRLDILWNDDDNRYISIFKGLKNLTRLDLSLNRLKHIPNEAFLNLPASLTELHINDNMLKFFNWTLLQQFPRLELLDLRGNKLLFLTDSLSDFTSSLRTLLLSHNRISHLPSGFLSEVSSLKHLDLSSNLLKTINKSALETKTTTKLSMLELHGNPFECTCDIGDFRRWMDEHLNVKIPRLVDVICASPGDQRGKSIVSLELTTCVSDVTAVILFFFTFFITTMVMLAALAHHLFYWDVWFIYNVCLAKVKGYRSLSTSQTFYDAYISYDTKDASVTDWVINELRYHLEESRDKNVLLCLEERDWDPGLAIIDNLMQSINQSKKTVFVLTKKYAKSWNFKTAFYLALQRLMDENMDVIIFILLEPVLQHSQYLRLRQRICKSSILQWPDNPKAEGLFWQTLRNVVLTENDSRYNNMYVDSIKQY
Format: cell-based
Experimental: The agonistic activity of the compounds of the present invention on TLR7 or TLR8 was evaluated using HEK-Blue™ cells stably expressing human TLR7 or TLR8. And the agonistic activity was assayed using their ability to induce the SEAP reporter gene under the control of the IFN-β minimal promoter fused to five NF-κB and ap-1 binding sites, specifically as follows:
HEK-Blue™ hTLR7 (Invivogen, 80,000 cells per well) or HEK-Blue™ hTLR8 (Invivogen, 60,000 cells per well) was added to a 96-well cell culture plate, the compound to be tested is added whereafter, and the final concentration of the compound(s) to be tested in the medium ranged from 0.001 to 36 μM, then incubated for 16-22 hours. SEAP levels in the cell culture medium were detected using HEK-Blue assay reagent Quanti-blue (Invivogen) according to the manufacturer's instructions. Neo2 Multifunctional Enzyme Labeler (Bio-tek) was used to determine the light absorption at 650 nm. GraphPad Prism was utilized to calculate the EC50, which is the half effective concentration of the drug.
For `CCCC(C)Nc1nc(N)nc2cnn(Cc3ccc(CN4CCCC4)cc3)c(=O)c12` (stereo not shown) [Compound I-1, 2-amino-4-(pentan-2-ylamino)-6-(4-(pyrrolidin-1-ylmethyl)benzyl)pyrimido[4,5-d]pyridazin-5(6H)-one], the EC50 was 107 nM.
`CCCCNc1nc(N)nc2cnn(Cc3ccc(C(=O)N4CCNCC4)cc3)c(=O)c12` [Compound I-2, 2-amino-4-(butylamino)-6-(4-(piperazine-1-carbonyl)benzyl)pyrimido[4,5-d]pyridazin-5(6H)-one] gave an EC50 of 102 nM.
Molecule `CCCCNc1nc(N)nc2cnn(Cc3ccc(C(=O)N4CCN(C)CC4)cc3)c(=O)c12` [Compound I-3, 2-amino-4-(butylamino)-6-(4-(4-methylpiperazine-1-carbonyl)benzyl)pyrimido[4,5-d]pyridazin-5(6H)-one] has an EC50 of 615 nM.
With `COCCNc1nc(N)nc2cnn(Cc3ccc(CN4CCCC4)cc3)c(=O)c12` [Compound I-4, 2-amino-4-((2-methoxyethyl)amino)-6-(4-(pyrrolidin-1-ylmethyl)benzyl)pyrimido[4,5-d]pyridazin-5(6H)-one] the EC50 was 403 nM.
In the case of `CCCCNc1nc(N)nc2cnn(Cc3ccc(CN4CCCC4)cc3)c(=O)c12` [Compound I-5, 2-amino-4-(butylamino)-6-(4-(pyrrolidin-1-ylmethyl)benzyl)pyrimido[4,5-d]pyridazin-5(6H)-one], the EC50 is reported as 149 nM.
With `CCCCNc1nc(N)nc2cnn(Cc3ccc(CN(C)C)cc3)c(=O)c12` [Compound I-7, 2-amino-4-(butylamino)-6-(4-((dimethylamino)methyl)benzyl)pyrimido[4,5-d]pyridazin-5(6H)-one] the EC50 was 153 nM.
In the case of `CCCCNc1nc(N)nc2cnn(Cc3ccc4c(c3)CCNC4)c(=O)c12` [Compound I-8, 2-amino-4-(butylamino)-6-((1,2,3,4-tetrahydroisoquinolin-6-yl)methyl)pyrimido[4,5-d]pyridazin-5(6H)-one], the EC50 is reported as 229 nM.
`CCCCNc1nc(N)nc2cnn(Cc3ccc(CN4CCNCC4)cc3)c(=O)c12` [Compound I-9, 2-amino-4-(butylamino)-6-(4-(piperazin-1-ylmethyl)benzyl)pyrimido[4,5-d]pyridazin-5(6H)-one] was tested, and the EC50 was 183 nM.
Work on `CCCCNc1nc(N)nc2cnn(Cc3ccc(CNC4CC4)cc3)c(=O)c12` [Compound I-10, 2-amino-4-(butylamino)-6-(4-((cyclopropylamino)methyl)benzyl)pyrimido[4,5-d]pyridazin-5(6H)-one] yielded an EC50 of 569 nM.
`CCCCNc1nc(N)nc2cnn(Cc3ccc(CN4CC5CC(C4)N5)cc3)c(=O)c12` [Compound I-11, 6-(4-((3,6-Diazabicyclo[3.1.1]heptan-3-yl)methyl)benzyl)-2-amino-4-(butylamino)pyrimido[4,5-d]pyridazin-5(6H)-one] showed an EC50 of 267 nM.
For `CCCCNc1nc(N)nc2cnn(Cc3ccc(CN4CCC5(CNC5)C4)cc3)c(=O)c12` [Compound I-12, 6-(4-((2,6-Diazaspiro[3.4]octan-6-yl)methyl)benzyl)-2-amino-4-(butylamino)pyrimido[4,5-d]pyridazin-5(6H)-one], the EC50 was 185 nM.
`CCCCNc1nc(N)nc2cnn(Cc3ccc4c(c3)CCN(C(C)C)C4)c(=O)c12` [Compound I-13, 2-amino-4-(butylamino)-6-((2-isopropyl-1,2,3,4-tetrahydroisoquinolin-6-yl)methyl)pyrimido[4,5-d]pyridazin-5(6H)-one] showed an EC50 of 549 nM.
`CCCCNc1nc(N)nc2cnn(Cc3ccc(CN4CCCC4)cc3OC)c(=O)c12` [Compound I-14, 2-amino-4-(butylamino)-6-(2-methoxy-4-(pyrrolidin-1-ylmethyl)benzyl)pyrimido[4,5-d]pyridazin-5(6H)-one] was tested, and the EC50 was 365 nM.
In the case of `CCCCNc1nc(N)nc2cnn(Cc3ccc(CN4CCCC4)cc3F)c(=O)c12` [Compound I-15, 2-amino-4-(butylamino)-6-(2-fluoro-4-(pyrrolidin-1-ylmethyl)benzyl)pyrimido[4,5-d]pyridazin-5(6H)-one], the EC50 is reported as 326 nM.
In the case of `CCCCNc1nc(N)nc2cnn(Cc3ccc(CN4CCCC4)nc3OC)c(=O)c12` [Compound I-16, 2-amino-4-(butylamino)-6-((2-methoxy-6-(pyrrolidin-1-ylmethyl)pyridin-3-yl)methyl)pyrimido[4,5-d]pyridazin-5(6H)-one], the EC50 is reported as 354 nM.
In the case of `CCCCNc1nc(N)nc2cnn(Cc3ccc(CN4CCCC4)c(OC)c3)c(=O)c12` [Compound I-17, 2-amino-4-(butylamino)-6-(3-methoxy-4-(pyrrolidin-1-ylmethyl)benzyl)pyrimido[4,5-d]pyridazin-5(6H)-one], the EC50 is reported as 368 nM.
In the case of `CCCCNc1nc(N)nc2cnn(Cc3ccc(CN4CCCC4)c(F)c3)c(=O)c12` [Compound I-18, 2-amino-4-(butylamino)-6-(3-fluoro-4-(pyrrolidin-1-ylmethyl)benzyl)pyrimido[4,5-d]pyridazin-5(6H)-one], the EC50 is reported as 218 nM.
`CCCCNc1nc(N)nc2cnn(Cc3ccc(CN(CCC)CCO)cc3)c(=O)c12` [Compound I-21] showed an EC50 of 388 nM.
`CCCCNc1nc(N)nc2cnn(Cc3ccc(CN(CCO)CCO)cc3)c(=O)c12` [Compound I-23, 2-amino-6-(4-((bis(2-hydroxyethyl)amino)methyl)benzyl)-4-(butylamino)pyrimido[4,5-d]pyridazin-5(6H)-one] was tested, and the EC50 was 222 nM.
`CCC[C@@H](C)Nc1nc(N)nc2cnn(Cc3ccc(CN(CCC)CCO)cc3)c(=O)c12` [Compound I-26] showed an EC50 of 322 nM.
With `CCC[C@@H](C)Nc1nc(N)nc2cnn(Cc3ccc(CN(CCO)CCO)cc3)c(=O)c12` [Compound I-27, (R)-2-amino-6-(4-((bis(2-hydroxyethyl)amino)methyl)benzyl)-4-(pentan-2-ylamino)pyrimido[4,5-d]pyridazin-5(6H)-one] the EC50 was 286 nM.
`CCC[C@@H](C)Nc1nc(N)nc2cnn(Cc3ccc(CN4CC5(COC5)C4)cc3)c(=O)c12` [Compound I-41, (R)-6-(4-((2-oxo-6-azaspiro[3.3]heptan-6-yl)methyl)benzyl)-2-amino-4-(pentan-2-ylamino)pyrimido[4,5-d]pyridazin-5(6H)-one] gave an EC50 of 101 nM.
With `CCC[C@@H](C)Nc1nc(N)nc2cnn(Cc3ccc(CNCCO)cc3)c(=O)c12` [Compound I-42] the EC50 was 74 nM.
Molecule `CCC[C@@H](C)Nc1nc(N)nc2cnn(Cc3ccc(CN4CC5(COC5)C4)cc3OC)c(=O)c12` [Compound I-43, (R)-6-(4-((2-oxo-6-azaspiro[3.3]heptan-6-yl)methyl)-2-methoxybenzyl)-2-amino-4-(pentan-2-ylamino)pyrimido[4,5-d]pyridazin-5(6H)-one] has an EC50 of 233 nM.
For `CCC[C@@H](C)Nc1nc(N)nc2cnn(Cc3ccc(CNCCO)cc3OC)c(=O)c12` [Compound I-44], the EC50 was 112 nM.
`CCC[C@@H](C)Nc1nc(N)nc2cnn(Cc3ccc(C4CCNCC4)cc3)c(=O)c12` [Compound I-55, (R)-2-amino-4-(pentan-2-ylamino)-6-(4-(piperidin-4-yl)benzyl)pyrimido[4,5-d]pyridazin-5(6H)-one] gave an EC50 of 169 nM.
`CCC[C@@H](C)Nc1nc(N)nc2cnn(Cc3ccc(C(=O)N4CCNCC4)cc3)c(=O)c12` [Compound I-56, (R)-2-amino-4-(pentan-2-ylamino)-6-(4-(piperazine-1-carbonyl)benzyl)pyrimido[4,5-d]pyridazin-5(6H)-one] showed an EC50 of 70 nM.
`CCC[C@@H](CO)Nc1nc(N)nc2cnn(Cc3ccc(C(=O)N4CCNCC4)cc3)c(=O)c12` [Compound I-58, (S)-2-amino-4-((1-hydroxypentan-2-yl)amino)-6-(4-(piperazine-1-carbonyl)benzyl)pyrimido[4,5-d]pyridazin-5(6H)-one] showed an EC50 of 73 nM.
